Data published in BindingDB's records for doi:10.7270/Q2TX3CTT (Broad Institute, 2010).
pEC50: −log10 of the molar value.

Biological target: Glycogen synthase kinase-3 beta (Homo sapiens, UniProt P49841)
Assay: GSK3beta kinase inhibitor potency, dose response, biochemical, luminescence, cell-free homogeneous, retest (AID 434954)

Sequence of Glycogen synthase kinase-3 beta (P49841 whole entry): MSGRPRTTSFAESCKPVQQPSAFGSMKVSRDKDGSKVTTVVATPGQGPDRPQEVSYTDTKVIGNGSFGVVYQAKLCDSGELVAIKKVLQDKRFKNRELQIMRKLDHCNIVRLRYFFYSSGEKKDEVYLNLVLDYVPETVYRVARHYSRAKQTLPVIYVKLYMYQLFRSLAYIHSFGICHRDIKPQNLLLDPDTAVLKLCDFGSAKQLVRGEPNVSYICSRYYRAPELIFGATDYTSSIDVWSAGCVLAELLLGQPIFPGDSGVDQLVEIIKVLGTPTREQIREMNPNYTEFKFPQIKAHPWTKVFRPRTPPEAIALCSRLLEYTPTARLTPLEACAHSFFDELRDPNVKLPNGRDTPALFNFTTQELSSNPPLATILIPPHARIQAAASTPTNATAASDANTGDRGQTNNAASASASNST

| pEC50 | Structure (SMILES) |
| --- | --- |
| < 3.52 | O=C1NC(=NNc2ccccc2)SC1=Cc1ccccc1 [SMR000174572] |
| < 3.52 | Nc1nnnn1/N=C/c1ccc(N2CCCCC2)c([N+](=O)[O-])c1 [SMR000174985] |
| < 3.52 | CCn1c(S)nnc1-c1ccc([N+](=O)[O-])cc1 [SMR000176027] |
| < 3.52 | CON=C(CNC(=O)c1ccc(Cl)cc1Cl)c1ccc(Cl)cc1 [SMR000179199] |
| < 3.52 | O=C(/C=C/c1ccc2ccccc2c1)c1ccoc1 [SMR000179251] |
| < 3.52 | CC[n+]1c(/C=C/N(C)c2ccccc2)oc2ccccc21 [SMR000184373] |
| < 3.52 | CC[n+]1c(/C=C/N(C)c2ccccc2)oc2ccc(Cl)cc21 [SMR000184374] |
| < 3.52 | O=C(COc1ccccc1[N+](=O)[O-])NN=Cc1cccs1 [SMR000185881] |
| < 3.52 | Cc1ccc(-c2nn(-c3ccccc3)cc2C=NNS(=O)(=O)c2ccccc2)cc1 [SMR000186234] |
| < 3.52 | CC1(C)CC(=O)C=C(NCc2ccccc2)C1 [SMR000186728] |
| < 3.52 | O=C(Nc1cccc(Cl)c1)c1ccc(NCCCN2CCOCC2)c([N+](=O)[O-])c1 [SMR000194818] |
| 4.78 | CCOC(=O)c1cnc2ccc(OC)cc2c1Nc1ccc2c(c1)OCCO2 [SMR000196288] |
| < 3.52 | CCOC(=O)c1cnc2ccc(F)cc2c1Nc1ccc2c(c1)OCCO2 [SMR000198647] |
| < 3.52 | Oc1ccc(N2CCN(C(=S)NCCc3ccccc3)CC2)cc1 [SMR000199335] |
| < 3.52 | O=C(Nc1ccc(-c2nc3ccccc3o2)cc1)c1ccc(N2CCOCC2)c([N+](=O)[O-])c1 [SMR000201361] |
| 4.42 | O=C(NN=Cc1ccco1)Nc1cccc(Cl)c1 [SMR000203570] |
| < 3.52 | COc1cc(C=NNC(=O)COc2ccccc2[N+](=O)[O-])ccc1OC(=O)c1ccco1 [SMR000204365] |
| < 3.52 | Cc1c(Br)c([N+](=O)[O-])nn1CCCC(=O)N1CCN(c2ccccc2)CC1 [SMR000206162] |
| < 3.52 | CC1CC(=O)Nc2ccc([N+](=O)[O-])cc2N1C (configuration not stated) [SMR000207335] |
| 4.37 | C=CCNC(=S)NN=Cc1cn(-c2ccccc2)nc1-c1ccc(OC)cc1 [SMR000212115] |
| 5.52 | O=C1N=C(NCc2ccccc2)SC1=Cc1ccc(O)cc1 [SMR000217101] |
| 5.24 | Nc1nc(NCC2CCCO2)nc(Nc2ccc(F)cc2)c1[N+](=O)[O-] (configuration not stated) [SMR000219528] |

| pEC50 | Structure (SMILES) |
| --- | --- |
| 4.97 | Cc1ccc(Nc2nc(NCC3CCCO3)nc(N)c2[N+](=O)[O-])cc1C (configuration not stated) [SMR000219669] |
| 5.65 | Nc1nc(NCCCN2CCOCC2)nc(Nc2ccccc2)c1[N+](=O)[O-] [SMR000219678] |
| 4.69 | Nc1nc(Nc2ccccc2)nc(N2CCOCC2)c1[N+](=O)[O-] [SMR000219795] |
| < 3.52 | Cc1ccc(Nc2nc(NCCCN3CCOCC3)nc(N)c2[N+](=O)[O-])cc1C [SMR000219808] |
| 5.08 | Cc1cccc(Nc2nc(N)c([N+](=O)[O-])c(NCc3ccco3)n2)c1 [SMR000220105] |
| 5.84 | CC(C)CCNc1nc(N)c([N+](=O)[O-])c(NCC2CCCO2)n1 (configuration not stated) [SMR000220274] |
| < 3.52 | CCN1CCN(Cc2c(O)ccc3c2O/C(=C\C=C\c2ccccc2)C3=O)CC1 [SMR000221319] |
| < 3.52 | Cc1ccc(C=NNC(=O)c2cncc(Br)c2)o1 [SMR000226283] |
| 4.64 | O=C(Nc1ccc([N+](=O)[O-])cn1)C1CC1 [SMR000227137] |
| < 3.52 | Cc1nn(C)c(C(=O)N2CCc3ccccc32)c1Br [SMR000228334] |
| < 3.52 | CC(C)C(=O)NC(=S)Nc1ccc(S(=O)(=O)N2CCCC2)cc1 [SMR000231524] |
| 4.70 | COc1cccc(N=Nc2c(N)[nH][nH]c2=O)c1 [SMR000231776] |
| < 3.52 | CCOC(=O)CCCSc1nnc(CCCCCN2C(=O)c3cccc4cccc(c34)C2=O)o1 [SMR000235858] |
| < 3.52 | COc1ccc2cc(C(N)=O)c(=NNC(=O)c3ccco3)oc2c1 [SMR000236446] |
| < 3.52 | Fc1ccc(CSc2ccc3nnc(-c4cccs4)n3n2)cc1 [SMR000236997] |
| < 3.52 | Cc1cccc(CSc2ccc3nnc(-c4cccs4)n3n2)c1 [SMR000236998] |
| < 3.52 | O=C(NCC(c1cccs1)N1CCOCC1)c1ccccc1NS(=O)(=O)c1ccc(Cl)cc1 (configuration not stated) [SMR000242318] |
| < 3.52 | NS(=O)(=O)c1cccc(NC(=O)COC(=O)/C(=C/c2cccs2)c2cccs2)c1 [SMR000242820] |
| < 3.52 | CN(C)S(=O)(=O)c1cc(NC(=O)COC(=O)Cc2ccc(Br)cc2)ccc1Cl [SMR000243172] |
| < 3.52 | O=C(O)COc1ccc2oc3ccccc3c2c1 [SMR000243853] |
| < 3.52 | Cc1ccc(S(=O)(=O)N(C)C)cc1NC(=O)c1ccc(OC(F)(F)F)cc1 [SMR000247294] |
| < 3.52 | O=C(NCCN1C(=O)S/C(=C\c2ccc(Cl)c(Cl)c2)C1=O)C1COc2ccccc2O1 (configuration not stated) [SMR000254587] |

| pEC50 | Structure (SMILES) |
| --- | --- |
| < 3.52 | CC(C)(C)NC(=O)NC(=O)COc1ccc(Br)cc1Br [SMR000254856] |
| < 3.52 | CC(=NNC(=S)Nc1c(C)cccc1C)c1cc2ccccc2o1 [SMR000260555] |
| < 3.52 | CCNC(=S)Nc1ccc2cn[nH]c2c1 [SMR000261305] |
| < 3.52 | CCOc1ccc(NC(=O)COC(=O)c2ccc3c(c2)C(=O)N(CCc2ccccc2)C3=O)cc1 [SMR000261375] |
| < 3.52 | O=C(Nc1cccnc1)c1sc(Nc2ccccc2)nc1-c1ccccc1 [SMR000261858] |
| < 3.52 | COc1ccc(-c2nn(-c3ccccc3)cc2C=NN=C(N)N)cc1OC [SMR000261891] |
| < 3.52 | Cc1ccc(-c2cc(C(=O)NCCc3ccccn3)c3ccccc3n2)c(C)c1 [SMR000264677] |
| < 3.52 | COc1cc2c(cc1OC)C(C)N(C(=O)c1ccc(Br)o1)CC2 (configuration not stated) [SMR000269781] |
| 4.94 | Cc1ccc(-c2n[nH]c(=S)n2N=Cc2ccncc2)cc1 [SMR000269897] |
| < 3.52 | CC(C)c1ccc(C(=O)NCCCN2CCN(CCCNC(=O)c3ccc(C(C)C)cc3)CC2)cc1 [SMR000272164] |
| < 3.52 | CN(C)/N=N/c1ccc(S(N)(=O)=O)cc1 [SMR000272943] |
| < 3.52 | CCOC(=O)c1cnc2ccc(C(=O)OC)cc2c1Nc1ccc(C(=O)O)cc1 [SMR000273135] |
| < 3.52 | Cn1c(=S)n(CCC(=O)O)c2ccccc21 [SMR000273673] |
| < 3.52 | O=[N+]([O-])c1ccccc1S(=O)(=O)N1CCc2ccccc2C1 [SMR000273931] |
| < 3.52 | COc1cccc(CN=Nc2cc(Cl)nc(C)n2)c1O [SMR000274053] |
| < 3.52 | O=C(O)c1cc(-c2ccc(C=NN3C(=O)C4C5C=CC(CC5)C4C3=O)o2)ccc1Cl (configuration not stated) [SMR000274176] |
| 5.15 | Oc1ccc(-c2nncn2-c2ccccc2)cc1 [SMR000274861] |
| < 3.52 | CN(C)Cc1c(O)ccc2c(-c3ccccc3)cc(=O)oc12 [SMR000277276] |
| < 3.52 | O=C(NN=Cc1ccco1)c1ccn[nH]1 [SMR000279368] |
| < 3.52 | CC1=C(C(=O)OCC2CCCO2)C(c2ccsc2)C2C(=O)CC(C)(C)CC2=N1 (configuration not stated) [SMR000279706] |
| 4.84 | Cc1ccc(CSc2nnc(-c3ccncc3)o2)c(C)c1 [SMR000280552] |
| < 3.52 | COc1cccc(C(=O)Nc2nc3ccc(S(C)(=O)=O)cc3s2)c1 [SMR000280607] |

| Structure (SMILES) | pEC50 |
| --- | --- |
| O=C1Nc2ccccc2C1=Cc1cnc[nH]1 [SMR000180717] | 5.52 |
